Data published in patent US4400517A, “Phosphoric esters derived from 1,2,4-triazole having an insecticidal, nematocidal and acaricidal action, and their preparation” (priority 1976, dated 1983).
Where two headings read alike, the source gives them in different places.

What was measured:
Macrosiphum euphorbiae = assay: Biological activity on Macrosiphum euphorbiae (Aphides); type: in vivo; conditions: potato plants, 24 h
Protocol: (1) Biological activity on Macrosiphum euphorbiae (Aphides)
Potato plants grown in pots were infested with adult females of aphides and, after several hours, were sprinked with an aqueous dispersion of the products under examination (see TABLE 5).
The percentage of mortality was assessed after 24 hours after the treatment (untreated plants=0).

Pieris brassicae = assay: Biological activity on Pieris brassicae (Lepidoptera); type: in vivo; conditions: 48 h
Protocol: (2) Biological activity on Pieris brassicae (Lepidotera)
Cut-off cauliflower leaves were sprinkled with an aqueous dispersion of the products under examination (see TABLE 5).
After drying, the leaves were infested with 5-day old larvae. The percentage of mortality of the larvae (untreated leaves=0) was determined after 48 hours from treatment.

[1] = test system: Leptinotarsa decemlineata; assay: Biological activity on Leptinotarsa decemlineata (Coleoptera); type: in vivo; conditions: 48 h
Protocol: (3) Biological activity on Leptinotarsa decemlineata (Coleoptera)
Small potato plants grown in pots were infested with 4-day old larvae, and were then sprinkled with an aqueous dispersion of the products under examination (see Tables 4 and 5).
The mortality percentage (untreated small plants=0) was determined after 48 hours from treatment.

Culex pipiens = assay: Biological activity on Culex pipiens larvae (Diptera); type: in vivo; conditions: 24 h
Protocol: (4) Biological activity on Culex pipiens (Diptera)
Into glasses containing an aqueous dispersion of the products under examination (see Tables 4 and 5) there were introduced mosquito larvae of third and fourth age.
The mortality percentage of the larvae (glasses containing pure water=0) was determined after 24 hours from treatment.

Tetranychus urticae [2] = assay: Biological activity on adults of Tetranychus urticae (Acari); type: in vivo; conditions: 24 h
Protocol: (5) Biological activity on adults of Tetranychus urticae (Acari)
Discs of bean leaves were infested with adult acari and then sprinkled with an aqueous dispersion of the products under examination (see Tables 4 and 5).
The mortality percentage was determined after 24 hours from treatment (untreated leaf discs, mortality=0).

Tetranychus urticae [3] = assay: Biological activity on Tetranychus urticae eggs (Acari); type: in vivo; conditions: bean leaf discs, 144 h
Protocol: (6) Biological activity on Tetranychus urticae (Acari)
Small discs of bean leaves were infested with Acari eggs and were then sprinkled with an aqueous dispersion of the products under examination (see Table 5).
The mortality percentage was determined after 6 days from treatment (untreated leaf discs, mortality=0).

Blatta orientalis = assay: Biological activity on Blatta orientalis (Ortoptera); type: in vivo; conditions: Blatta orientalis, 48 h, read-out: Activity (mortality class), Blatta O.
Protocol: (10) Biological activity on Blatta orientalis (Ortoptera)
The bottom and walls of glass crystallizers were treated uniformly with an acetonic solution of the products under examination (see Tables 4 and 5). After evaporation of the solvent, into each crystallizer were introduced ten 80-100 days old neanides. The crystallizers were then closed with a metal net cover. After 24 hours from the start of the treatment, the insects were transferred to similar untreated crystallizers, and there were appropriately nourished in conventional manner.
The percentage of mortality (untreated insects=0) was determined after 48 hours from the start of the treatment.

Spodoptera littoralis = assay: Biological activity on Spodoptera littoralis (Lepidoptera); type: in vivo; conditions: 48 h
Protocol: (7) Biological activity on Spodoptera littoralis (Lepidoptera)
Cut tobacco leaves were sprinkled with an aqueous dispersion of the products under examination (see Tables 4 and 5).
After drying, the leaves were infested with 5-day old larvae.
The percentage of mortality of the larvae was determined after 48 hours from treatment (untreated leaves, mortality=0).

[4] = Toxicity on albino rats by oral administration; conditions: rat, in vivo
Locusta M. = assay: Activity on Locusta M.; conditions: in vivo
[5] = 1%o, Table 5, read-out: Activity (mortality class), Pieris B.
[6] = 0.05%o, Table 5, read-out: Activity (mortality class), Leptinotarsa D.
[7] = 1%o, Table 5, read-out: Activity (mortality class), Leptinotarsa D.
[8] = 2 ppm, Table 5, read-out: Activity (mortality class), Culex P. (larvae)
[9] = 0.01%o, Table 5, read-out: Activity (mortality class), Tetranychus U. (adults)
[10] = 1%o, Table 5, read-out: Activity (mortality class), Tetranychus U. (adults)
[11] = 1%o, Table 5, read-out: Activity (mortality class), Spodoptera L.
[12] = read-out: Activity (mortality class), Pieris B.
[13] = read-out: Activity (mortality class), Leptinotarsa D.
[14] = read-out: Activity (mortality class), Culex P. (larvae)
[15] = read-out: Activity (mortality class), Tetranychus U. (adults)
[16] = read-out: Activity (mortality class), Spodoptera L.

SMILES | Activity (mortality class), Macrosiphum E. (Macrosiphum euphorbiae) | mortality at 0.1 % (Pieris brassicae; [5]) | mortality at 0.005 % [1, 6] | mortality at 0.1 % [1, 7] | mortality at 2 ppm (Culex pipiens; [8]) | mortality at 0.001 % (Tetranychus urticae [2]; [9]) | mortality at 0.1 % (Tetranychus urticae [2]; [10]) | Activity (mortality class), Tetranychus U. (eggs) (Tetranychus urticae [3]) | mortality at 1 g/m2 (Blatta orientalis; 1 g/m^2, Table 5) | mortality at 0.1 % (Spodoptera littoralis; [11]) | mortality at 0.1 % (Pieris brassicae; [12]) | mortality at 0.1 % [1, 13] | mortality at 2 ppm (Culex pipiens; [14]) | mortality at 0.1 % (Tetranychus urticae [2]; [15]) | mortality at 0.1 % (Spodoptera littoralis; [16]) | Activity (mortality class), Locusta M. (Locusta M.) | mortality at 0.02 ppm (Culex pipiens; [14]) | mortality at 0.001 % (Tetranychus urticae [2]; [15]) | also measured
CC=Cc1nc(OP(=S)(OCC)OCC)n(C(C)C)n1 [M 9137] | ++ (100% of mortality) | 100% | 100% | 100% | 100% | 10 to 69% | 100% | ++ (100% of mortality) | 100% | – | – | – | – | – | – | – | – | – | mortality at 0.01 g/m2 (Blatta orientalis; 0,01 g/m^2, Table 5): 10 to 69%
CC=C(Cl)c1nc(OP(=S)(OCC)OCC)n(C)n1 [M 8634] | – | 100% | 100% | 100% | 100% | 10 to 69% | 100% | – | 100% | 100% | – | – | – | – | – | – | – | – | mortality at 0.005 % (Spodoptera littoralis; 0.05%o, Table 5, read-out: Activity (mortality class), Spodoptera L.): 10 to 69%; mortality at 0.01 g/m2 (Blatta orientalis; 0,01 g/m^2, Table 5): 10 to 69%; LD50 [4]: 1400 mg/kg
CCOP(=S)(OCC)Oc1nc(C(C)SC)nn1-c1ccccc1 (centres unmarked) [M 8170] | + (70-99% of mort.) | – | – | – | – | – | – | ++ (100% of mortality) | – | – | 100% | 100% | 100% | 100% | 70 to 99% | ++ (100% of mortality) | – | – | –
CCOP(=S)(OCC)Oc1nc(C(C)OC)nn1-c1ccccc1 (centres unmarked) [M 8167] | + (70-99% of mort.) | 100% | – | 100% | – | – | 100% | ++ (100% of mortality) | – | 100% | – | – | 100% | – | – | – | – | – | –
C=C(C)c1nc(OP(=S)(OCC)OCC)n(C)n1 [M 8593] | ++ (100% of mortality) | – | – | – | – | – | – | ± (10-69% of mort.) | – | – | 100% | 100% | 100% | 100% | 100% | – | 10 to 69% | 10 to 69% | mortality at 0.01 g/m2 (Blatta orientalis): 70 to 99%; mortality at 1 g/m2 (Blatta orientalis): 100%
CC=Cc1nc(OP(=S)(OCC)OCC)n(C)n1 [M 8119] | – | – | – | – | – | – | – | – | – | – | – | – | – | – | – | ++ (100% of mortality) | 0 to 9% | 70 to 99% | mortality at 0.001 % (Pieris brassicae; [12]): 10 to 69%; mortality at 0.005 % [1, 13]: 10 to 69%; mortality at 0.005 % (Spodoptera littoralis; [16]): 10 to 69%; mortality at 0.01 g/m2 (Blatta orientalis): 100%
CC=C(Br)c1nc(OP(=S)(OCC)OCC)n(C)n1 [M 8549] | – | 100% | 100% | 100% | 100% | 10 to 69% | 100% | – | 100% | 100% | – | – | – | – | – | – | – | – | mortality at 0.001 % (Pieris brassicae; 0.01%o, Table 5, read-out: Activity (mortality class), Pieris B.): 10 to 69%; LD50 [4]: 1000 mg/kg
CCOP(=S)(OCC)Oc1nc(C(C)=C(Cl)Cl)nn1CC [M 9141] | ++ (100% of mortality) | – | – | – | – | – | – | ++ (100% of mortality) | – | – | 100% | 100% | 100% | 100% | 100% | ++ (100% of mortality) | 70 to 99% | 10 to 69% | mortality at 0.005 % [1, 13]: 100%; mortality at 1 g/m2 (Blatta orientalis): 100%
CCOP(=S)(OCC)Oc1nc(C(=O)CSC)nn1-c1ccccc1 [M 8169] | ± (10-69% of mort.) | – | – | – | – | – | – | ++ (100% of mortality) | – | – | 100% | 100% | 100% | 100% | 10 to 69% | – | – | – | –
